Test results reported in patent US9505781B2, “Compositions comprising thienopyrimidine and thienopyridine compounds and methods of use thereof” (The Regents of the University of Michigan, priority 2013, dated 2016).

Each molecule was assayed against T1, menin-MLL interaction (Homo sapiens, UniProt O00255) (assay: biochemical).
T1 sequence (O00255 1-610): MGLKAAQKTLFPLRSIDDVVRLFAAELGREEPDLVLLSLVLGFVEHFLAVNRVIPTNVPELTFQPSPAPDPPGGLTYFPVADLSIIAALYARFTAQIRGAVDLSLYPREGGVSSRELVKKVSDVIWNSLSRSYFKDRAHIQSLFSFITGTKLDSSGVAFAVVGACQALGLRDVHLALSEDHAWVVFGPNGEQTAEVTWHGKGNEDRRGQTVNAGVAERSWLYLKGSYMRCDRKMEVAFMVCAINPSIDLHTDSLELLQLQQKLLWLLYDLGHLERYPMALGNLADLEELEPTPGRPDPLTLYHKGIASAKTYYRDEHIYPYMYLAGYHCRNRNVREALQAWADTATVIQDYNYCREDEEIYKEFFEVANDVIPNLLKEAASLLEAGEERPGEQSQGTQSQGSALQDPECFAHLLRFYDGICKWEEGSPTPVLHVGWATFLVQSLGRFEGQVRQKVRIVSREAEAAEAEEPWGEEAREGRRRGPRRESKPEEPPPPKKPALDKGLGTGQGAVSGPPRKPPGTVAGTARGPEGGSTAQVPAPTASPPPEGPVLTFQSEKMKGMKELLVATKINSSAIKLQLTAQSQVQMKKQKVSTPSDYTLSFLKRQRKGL
Source text: Compounds that inhibit the interaction decrease the fluorescence anisotropy which is being used as a read-out for compound screening and for IC50 determination.

Row | SMILES | IC50 [nM]
1 | FC(F)(F)Cc1cc2c(N[C@@H]3[C@@H]4CC[C@H]3CN(Cc3ccccc3)C4)ncnc2s1 [Compound 135] | 100 to 500
2 | O=C1CCc2cc(CN3CCC(Nc4ncnc5sc(CC(F)(F)F)cc45)CC3)ccc2N1 [Compound 136] | 500 to 2000
3 | NCc1ccc(CN2CCC(Nc3ncnc4sc(CC(F)(F)F)cc34)CC2)cc1 [Compound 137] | 500 to 2000
4 | OCCC(F)(F)Cc1cc2c(NC3CCN(Cc4ccccc4)CC3)ncnc2s1 [Compound 138] | 500 to 2000
5 | OCc1ccc(CN2CCC(Nc3ncnc4sc(CC(F)(F)F)cc34)CC2)cc1 [Compound 140] | 500 to 2000
6 | FC(F)Oc1ccc(CN2CCC(Nc3ncnc4sc(CC(F)(F)F)cc34)CC2)cc1 [Compound 141] | 500 to 2000
7 | NS(=O)(=O)c1ccc(CN2CCC(Nc3ncnc4sc(CC(F)(F)F)cc34)CC2)c(Cl)c1 [Compound 142] | 500 to 2000
8 | CN1CCN(Cc2ccc(CN3CCC(Nc4ncnc5sc(CC(F)(F)F)cc45)CC3)cc2)CC1 [Compound 143] | 500 to 2000
9 | FC(F)(F)Cc1cc2c(NC3CCN(Cc4ccc(N5CCCCC5)cc4)CC3)ncnc2s1 [Compound 145] | 500 to 2000
10 | FC(F)(F)Cc1cc2c(NC3CCN(Cc4ccc(C(F)(F)F)cc4)CC3)ncnc2s1 [Compound 146] | 500 to 2000
11 | FC(F)(F)Cc1cc2c(NC3CCN(Cc4ccccc4C(F)(F)F)CC3)ncnc2s1 [Compound 148] | 500 to 2000
12 | CCCc1cc2c(N(C)C3CCN(Cc4ccccc4)CC3)ncnc2s1 [Compound 150] | 500 to 2000
13 | CCCc1cc2c(NC3CCN(Cc4ccc(C)cc4)CC3)ncnc2s1 [Compound 151] | 500 to 2000
14 | CCCc1cc2c(NC3CCN(Cc4ccccc4Cl)CC3)ncnc2s1 [Compound 154] | 500 to 2000
15 | Cc1ccccc1CN1CCC(Nc2ncnc3sc(CC(C)(F)F)cc23)CC1 [Compound 155] | 500 to 2000
16 | NS(=O)(=O)c1ccc(CN2CCC(Nc3ncnc4sc(CC(F)(F)F)cc34)CC2)cc1 [Compound 156] | 500 to 2000
17 | N#C[C@@H]1C[C@@H]1c1ccc(CN2CCC(Nc3ncnc4sc(CC(F)(F)F)cc34)CC2)cc1 [Compound 159] | 500 to 2000
18 | N#Cc1cc2cc(CN3CCC(Nc4ncnc5sc(CC(F)(F)F)cc45)C(N)C3)ccc2[nH]1 (centres unmarked) [Compound 160] | < 100
19 | N#Cc1cc2cc(CN3CC[C@@H](Nc4ncnc5sc(CC(F)(F)F)cc45)[C@@H](CO)C3)ccc2[nH]1 [Compound 164] | < 100

Row | SMILES | IC50 [nM]
20 | N[C@H]1CN(Cc2ccccc2)CC[C@@H]1Nc1ncnc2sc(CC(F)(F)F)cc12 [Compound 166] | 100 to 500
21 | FC(F)(F)Cc1cc2c(N[C@H]3CCN(Cc4ccccc4)C[C@@H]3NCc3ccccc3)ncnc2s1 [Compound 167] | 100 to 500
22 | FC(F)(F)Cc1cc2c(N[C@H]3CCN(Cc4ccccc4)C[C@@H]3NCCc3ccccc3)ncnc2s1 [Compound 168] | 100 to 500
23 | FC(F)(F)Cc1cc2c(N[C@H]3CCN(Cc4ccccc4)C[C@@H]3NCC3CCCC3)ncnc2s1 [Compound 169] | 100 to 500
24 | O=CN1CCCC1CN[C@H]1CN(Cc2ccccc2)CC[C@@H]1Nc1ncnc2sc(CC(F)(F)F)cc12 (some centres unmarked) [Compound 170] | 100 to 500
25 | CS(=O)(=O)N1CCC[C@H]1CN[C@H]1CN(Cc2ccccc2)CC[C@@H]1Nc1ncnc2sc(CC(F)(F)F)cc12 [Compound 172] | 100 to 500
26 | CCn1c(C#N)cc2cc(CN3CCC(Nc4ncnc5sc(CC(F)(F)F)cc45)CC3)ccc21 [Compound 177] | < 100
27 | N#Cc1cc2cc(CN3CCC(Nc4ncnc5sc(CC(F)(F)F)cc45)CC3)ccc2n1CC1CC1 [Compound 178] | < 100
28 | COc1c(CN2CCC(Nc3ncnc4sc(CC(F)(F)F)cc34)CC2)ccc2[nH]c(C#N)cc12 [Compound 180, 4-methoxy-5-((4-((6-(2,2,2-trifluoroethyl)thieno[2,3-d]pyrimidin-4-yl)amino)piperidin-1-yl)methyl)-1H-indole-2-carbonitrile] | < 100
29 | COc1cc2[nH]c(C#N)cc2cc1CN1CCC(Nc2ncnc3sc(CC(F)(F)F)cc23)CC1 [Compound 181, 6-methoxy-5-((4-((6-(2,2,2-trifluoroethyl)thieno[2,3-d]pyrimidin-4-yl)amino)piperidin-1-yl)methyl)-1H-indole-2-carbonitrile] | < 100
30 | N#Cc1cc2cc(CN3CCC(Nc4ncnc5sc(CC(F)(F)F)cc45)CC3)c(O)cc2[nH]1 [Compound 182, 6-hydroxy-5-((4-((6-(2,2,2-trifluoroethyl)thieno[2,3-d]pyrimidin-4-yl)amino)pipendin-1-yl)methyl)-1H-indole-2-carbonitrile] | < 100
31 | N#Cc1cc2c(F)c(CN3CCC(Nc4ncnc5sc(CC(F)(F)F)cc45)CC3)ccc2[nH]1 [Compound 184] | < 100
32 | N#Cc1cc2cc(CN3CCC(Nc4ncnc5sc(CC(F)(F)F)cc45)CC3)ccc2n1Cc1c[nH]cn1 [Compound 185] | < 100
33 | N#Cc1cc2cc(CN3CCC(Nc4ncnc5sc(CC(F)(F)F)cc45)CC3)ccc2n1C[C@@H](O)CO [Compound 187] | < 100
34 | CO[C@@H](CO)Cn1c(C#N)cc2cc(CN3CCC(Nc4ncnc5sc(CC(F)(F)F)cc45)CC3)ccc21 [Compound 190] | < 100
35 | N#Cc1cc2cc(CN3CCC(Nc4ncnc5sc(CC(F)(F)F)cc45)CC3)ccc2n1Cc1c[nH]nn1 [Compound 195] | < 100
36 | N#Cc1cc2cc(CN3CCC(Nc4ncnc5sc(CC(F)(F)F)cc45)CC3)ccc2n1CCn1cccn1 [Compound 196] | < 100
37 | N#Cc1cc2cc(CN3CCC(Nc4ncnc5sc(CC(F)(F)F)cc45)CC3)ccc2n1Cc1ncon1 [Compound 198] | < 100
38 | N#Cc1cc2cc(CN3CCC(Nc4ncnc5sc(CC(F)(F)F)cc45)CC3)ccc2n1Cc1cc[nH]n1 [Compound 199] | < 100

Further lines, results first:

Row | IC50 [nM] | SMILES
39 | 100 to 500 | FC(F)(F)Cc1cc2c(NC3CCN(Cc4cc[nH]c4)CC3)ncnc2s1 [Compound 134]
40 | 500 to 2000 | Nc1ccc(CN2CCC(Nc3ncnc4sc(CC(F)(F)F)cc34)CC2)cc1 [Compound 139]
41 | 500 to 2000 | N#Cc1ccc(CN2CCC(Nc3ncnc4sc(CC(F)(F)F)cc34)CC2)cc1 [Compound 144]
42 | 500 to 2000 | Cc1ccc(CN2CCC(Nc3ncnc4sc(CC(F)(F)F)cc34)CC2)cc1 [Compound 147]
43 | 500 to 2000 | CCCc1cc2c(NC3CCN(Cc4ccccc4)CC3)ncnc2s1 [Compound 149]
44 | 500 to 2000 | CCCc1cc2c(NC3CCN(Cc4ccccc4Br)CC3)ncnc2s1 [Compound 152]
45 | 500 to 2000 | CCCc1cc2c(NC3CCN(Cc4ccccc4C)CC3)ncnc2s1 [Compound 153]
46 | 500 to 2000 | Nc1cccc(CN2CCC(Nc3ncnc4sc(CC(F)(F)F)cc34)CC2)c1 [Compound 157]
47 | 500 to 2000 | FC(F)(F)Cc1sc2ncnc3c2c1CNN3C1CCN(Cc2ccccc2)CC1 [Compound 158]
48 | < 100 | N#Cc1cc2cc(CN3CCC(Nc4ncnc5sc(CC(F)(F)F)cc45)C(NC[C@H]4CCCN4C=O)C3)ccc2[nH]1 (some centres unmarked) [Compound 161]
49 | < 100 | N#Cc1cc2cc(CN3CCC(Nc4ncnc5sc(CC(F)(F)F)cc45)C(N)C3)ccc2n1CC1CC1 (centres unmarked) [Compound 162]
50 | < 100 | N#Cc1cc2cc(CN3CC[C@H](Nc4ncnc5sc(CC(F)(F)F)cc45)[C@H](CO)C3)ccc2[nH]1 [Compound 163]
51 | 100 to 500 | FC(F)(F)Cc1cc2c(N[C@H]3CCN(Cc4ccccc4)C[C@@H]3NCCC3CCCC3)ncnc2s1 [Compound 171]
52 | 100 to 500 | CS(=O)(=O)N1CCC[C@H]1CN[C@@H]1CN(Cc2ccccc2)CC[C@H]1Nc1ncnc2sc(CC(F)(F)F)cc12 [Compound 173]
53 | 100 to 500 | FC(F)(F)Cc1cc2c(N[C@H]3CCN(Cc4ccccc4)C[C@@H]3OCc3ccccc3)ccnc2s1 [Compound 174]
54 | < 100 | N#Cc1[nH]c2ccc(CN3CCC(Nc4ncnc5sc(CC(F)(F)F)cc45)CC3)cc2c1F [Compound 176]
55 | < 100 | N#Cc1cc2cc(CN3CCC(Nc4ncnc5sc(CC(F)(F)F)cc45)CC3)ccc2n1CCO [Compound 179]
56 | < 100 | N#Cc1cc2cc(CN3CCC(Nc4ncnc5sc(CC(F)(F)F)cc45)CC3)ccc2n1CO [Compound 183]
57 | < 100 | N#Cc1cc2cc(CN3CCC(Nc4ncnc5sc(CC(F)(F)F)cc45)CC3)ccc2n1CCN [Compound 186]
58 | < 100 | N#Cc1cc2cc(CN3CCC(Nc4ncnc5sc(CC(F)(F)F)cc45)CC3)ccc2n1CC(N)=O [Compound 189]
59 | < 100 | CO[C@H](CO)Cn1c(C#N)cc2cc(CN3CCC(Nc4ncnc5sc(CC(F)(F)F)cc45)CC3)ccc21 [Compound 191]
60 | < 100 | N#Cc1cc2cc(CN3CCC(Nc4ncnc5sc(CC(F)(F)F)cc45)CC3)ccc2n1CCN1CCOCC1 [Compound 192]
61 | < 100 | COc1c(CN2CCC(Nc3ncnc4sc(CC(F)(F)F)cc34)CC2)ccc2c1cc(C#N)n2CC(N)=O [Compound 193]
62 | < 100 | N#Cc1cc2cc(CN3CCC(Nc4ncnc5sc(CC(F)(F)F)cc45)CC3)ccc2n1CCC(N)=O [Compound 194]
63 | < 100 | N#CCn1c(C#N)cc2cc(CN3CCC(Nc4ncnc5sc(CC(F)(F)F)cc45)CC3)ccc21 [Compound 197]
64 | < 100 | N#Cc1cc2cc(CN3CCC(Nc4ncnc5sc(CC(F)(F)F)cc45)CC3)ccc2n1Cc1cscn1 [Compound 200]
65 | < 100 | Cc1nc(Cn2c(C#N)cc3cc(CN4CCC(Nc5ncnc6sc(CC(F)(F)F)cc56)CC4)ccc32)cs1 [Compound 201]
